Here are results for five compounds from article PMC6640638 (Journal of the American Chemical Society, 2016).

Holding throughout (test): adenylation: pyrophosphate exchange or coupled pyrophosphate release assay
Holding throughout (format): biochemical
Common to all, as to settings: adenylation step; ATP

For assay [1], the target named is T1, glycyl-tRNA synthetase (GlyRS, class IIC) (Escherichia coli, UniProt P00960).
T1 sequence (P00960 1-303): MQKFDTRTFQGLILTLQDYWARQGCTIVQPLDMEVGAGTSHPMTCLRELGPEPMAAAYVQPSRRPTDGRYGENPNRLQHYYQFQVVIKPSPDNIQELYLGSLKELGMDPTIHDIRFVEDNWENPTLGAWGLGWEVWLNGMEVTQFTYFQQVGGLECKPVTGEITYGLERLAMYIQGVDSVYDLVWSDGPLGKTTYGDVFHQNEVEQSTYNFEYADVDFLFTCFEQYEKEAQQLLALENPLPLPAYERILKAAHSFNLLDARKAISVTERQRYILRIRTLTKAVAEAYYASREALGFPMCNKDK
T1 sequence (P00961 2-689 partner): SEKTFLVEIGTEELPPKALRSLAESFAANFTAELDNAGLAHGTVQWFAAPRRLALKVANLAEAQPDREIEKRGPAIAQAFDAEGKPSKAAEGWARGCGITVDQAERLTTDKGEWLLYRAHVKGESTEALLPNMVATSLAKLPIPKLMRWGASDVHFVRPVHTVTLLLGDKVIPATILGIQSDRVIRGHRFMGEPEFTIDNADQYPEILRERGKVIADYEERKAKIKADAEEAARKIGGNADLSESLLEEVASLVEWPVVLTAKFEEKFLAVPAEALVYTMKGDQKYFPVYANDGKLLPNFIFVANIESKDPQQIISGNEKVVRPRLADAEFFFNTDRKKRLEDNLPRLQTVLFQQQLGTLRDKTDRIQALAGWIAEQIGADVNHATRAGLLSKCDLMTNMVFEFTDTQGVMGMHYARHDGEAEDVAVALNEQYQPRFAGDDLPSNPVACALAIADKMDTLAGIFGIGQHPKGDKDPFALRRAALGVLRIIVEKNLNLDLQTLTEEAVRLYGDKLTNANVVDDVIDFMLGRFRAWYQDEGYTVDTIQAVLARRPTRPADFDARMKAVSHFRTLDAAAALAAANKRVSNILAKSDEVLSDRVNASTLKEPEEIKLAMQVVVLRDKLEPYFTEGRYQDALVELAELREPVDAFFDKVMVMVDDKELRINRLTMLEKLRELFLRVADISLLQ

The target of assay [2] is phenylalanyl-tRNA synthetase (PheRS, class IIC) (Escherichia coli, UniProt P08312).
phenylalanyl-tRNA synthetase (PheRS, class IIC), sequence (P08312 whole entry): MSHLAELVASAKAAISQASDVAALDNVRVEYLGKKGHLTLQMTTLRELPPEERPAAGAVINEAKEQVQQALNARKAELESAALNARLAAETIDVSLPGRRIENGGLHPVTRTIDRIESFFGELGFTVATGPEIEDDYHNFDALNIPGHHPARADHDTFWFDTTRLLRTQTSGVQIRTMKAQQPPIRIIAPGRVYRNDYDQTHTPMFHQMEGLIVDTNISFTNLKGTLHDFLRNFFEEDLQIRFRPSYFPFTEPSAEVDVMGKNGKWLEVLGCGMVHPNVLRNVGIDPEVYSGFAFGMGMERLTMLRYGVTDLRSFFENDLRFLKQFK
phenylalanyl-tRNA synthetase (PheRS, class IIC), sequence (P07395 whole entry partner): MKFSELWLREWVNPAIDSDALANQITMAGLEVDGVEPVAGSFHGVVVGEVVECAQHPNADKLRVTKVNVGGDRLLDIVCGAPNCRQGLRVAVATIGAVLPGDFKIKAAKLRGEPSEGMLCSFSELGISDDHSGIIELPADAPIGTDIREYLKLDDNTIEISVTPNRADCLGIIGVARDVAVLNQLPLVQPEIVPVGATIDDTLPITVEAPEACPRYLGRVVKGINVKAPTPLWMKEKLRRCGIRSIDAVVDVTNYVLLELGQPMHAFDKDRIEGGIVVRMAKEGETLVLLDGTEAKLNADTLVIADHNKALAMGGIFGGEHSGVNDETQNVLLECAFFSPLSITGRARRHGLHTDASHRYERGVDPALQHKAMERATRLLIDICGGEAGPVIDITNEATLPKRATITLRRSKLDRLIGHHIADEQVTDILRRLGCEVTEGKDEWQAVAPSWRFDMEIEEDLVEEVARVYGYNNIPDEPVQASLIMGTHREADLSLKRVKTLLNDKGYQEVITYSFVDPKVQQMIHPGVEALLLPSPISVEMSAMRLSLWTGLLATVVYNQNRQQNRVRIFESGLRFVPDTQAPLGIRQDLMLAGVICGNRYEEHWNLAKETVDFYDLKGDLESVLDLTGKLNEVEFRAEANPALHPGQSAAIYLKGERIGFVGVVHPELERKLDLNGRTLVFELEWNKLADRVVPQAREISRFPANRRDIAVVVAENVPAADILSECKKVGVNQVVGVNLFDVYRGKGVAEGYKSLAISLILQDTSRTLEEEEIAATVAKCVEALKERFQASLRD
For assay [3], the target named is T2, tyrosyl-tRNA synthetase (TyrRS, class IC) (Escherichia coli, UniProt P0AGJ9).
T2 sequence (P0AGJ9 2-424): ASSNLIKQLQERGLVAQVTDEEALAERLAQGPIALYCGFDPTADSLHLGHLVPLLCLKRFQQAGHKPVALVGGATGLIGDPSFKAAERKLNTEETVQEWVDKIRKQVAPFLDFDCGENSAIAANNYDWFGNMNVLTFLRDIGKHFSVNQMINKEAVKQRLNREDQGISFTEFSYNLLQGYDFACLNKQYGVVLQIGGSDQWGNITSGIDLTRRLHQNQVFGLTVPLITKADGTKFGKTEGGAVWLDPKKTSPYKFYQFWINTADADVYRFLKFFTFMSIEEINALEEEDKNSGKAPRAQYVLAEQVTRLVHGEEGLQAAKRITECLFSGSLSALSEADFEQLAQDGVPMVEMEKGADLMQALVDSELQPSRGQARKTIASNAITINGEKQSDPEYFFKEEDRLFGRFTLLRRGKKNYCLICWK

`NCC(=O)O` [α-Gly]: in assay [1], the KM entry was “GlyRS and PheRS (class II) tolerate the expanded β^3-amino acid backbone”.

Turning to `N[C@@H](Cc1ccccc1)C(=O)O` [α-Phe], the KM entry in assay [2] is “GlyRS and PheRS (class II) tolerate the expanded β^3-amino acid backbone”.

As for `N[C@@H](Cc1ccc(O)cc1)C(=O)O` [α-Tyr], the KM result in assay [3] was “GluRS and TyrRS (both class I) show the greatest selection against β^3-amino acid substrates”.

For the compound `NCCC(=O)O` [β^3-Gly], the KM entry in assay [1] was “GlyRS and PheRS (class II) tolerate the expanded β^3-amino acid backbone”.

Turning to `NC(CC(=O)O)Cc1ccccc1` (stereo not drawn) [β^3-Phe], in assay [2], the KM result is “GlyRS and PheRS (class II) tolerate the expanded β^3-amino acid backbone”.
